According to patent publication US20260207600A1, “METHODS OF TREATMENT WITH MYOSIN MODULATOR” (MYOKARDIA, INC., priority 2019, published 2026):
Read-outs that look alike come from different tables or passages of the source.

Assays:
[1] = Solubility estimates at ambient temperature; format: physicochemical; conditions: for solubility: organic solvent or mixture, thermodynamic from solid, read-out: solubility estimate
Experimental: Solubilities were calculated based on the total solvent used to give a solution; actual solubilities may be greater because of the volume of solvent portions utilized or a slow rate of dissolution. […] If dissolution occurred at the first aliquot, the value was reported as “>”.
Solubility estimates at ambient temperature were performed in 25 solvents and solvent systems using Form A (Lot 2-4) (Table 13.3).

[2] = test system: Yucatan mini-pigs with a heterozygous MYH7 R403Q mutation; assay: Chronic MYK-581 in mini-pig genetic model of non-obstructed HCM (cMR imaging, invasive hemodynamics, dobutamine challenge); format: in vivo
Experimental: The mini-pigs were treated for at least 12 weeks and were evaluated as shown in Schematic 1 below. […] After ~14 weeks of treatment, all pigs underwent in vivo cMR imaging for the assessment of LV function and geometry, as well as of myocardial composition via of Late Gadolinium Enhancement (LGE) and T1 mapping techniques including extracellular volume (ECV) assessments. In addition, a subset of animals (MYK: n=6, CTRL: n=5) also underwent terminal invasive hemodynamics assessments, including cardiac output (CO, via thermodilution), load-independent systolic/diastolic function (via LV pressure-volume relationships), and β-adrenergic (β-AR) cardiac reserve (via dobutamine at 5 μg/kg/min IV).
The mini-pig model can be obtained following the method disclosed in a presentation entitled “A Minipig Genetic Model of Hypertrophic Cardiomyopathy Uncovers the Pathophysiological Mechanisms of Disease Evolution”, by E. Green et al., at University of Iowa, Carver College of Medicine.

[3] = test system: conscious Sprague-Dawley rats; assay: Positive inotropic challenge (dobutamine, levosimendan) after supra-therapeutic mavacamten, echocardiography; format: in vivo, rat; conditions: healthy rats exposed to a supra-therapeutic dose of mavacamten
Experimental: Methods: The responsiveness of mavacamten-induced cardio-depression to positive inotropic challenges was assessed in a set of conscious Sprague-Dawley rats. In these animals, functional reserve was assessed via either dobutamine (+DOB, 10 μg/kg/min IV for 10 min, n=7) or levosimendan (+LEVO, 0.3 μmol/kg IV over […]; n=6) challenges given 3 hrs following a single-dose administration of MAVA (at 4 mg/kg, PO). Cardiac function/geometry were recorded and compared at three separate time-points/days: prior to dosing (i.e., at baseline) and at 3 hrs post-dosing both before as well as during the inotropic challenge; in order to account for the levosimendan-induced changes in loading conditions, an additional echocardiographic examination was performed following acute preload-restoration in LEVO-treated rats (+LEVO/F, 0.9% NaCl at 30 mL/kg/hr IV).
In these experiments, left-ventricular fractional shortening (FS), an index of systolic performance, as well as LV dimensions/volumes and heart rates were measured using a high-frequency transducer and parasternal long-axis transthoracic views (Vevo2100, VisualSonic). FS was defined as the end-diastole normalized change in internal dimensions/diameter of the left ventricle between end-systole (LVESd) and end-diastole (LVEDd) (i.e., FS=100·[LVEDd−LVESd]/LVEDd). LV volumes were derived assuming a Teichholz model (LVV=7·[2.4+LVid]−1·LVid3).

Question: For `CC(C)n1c(=O)cc(N[C@@H](C)c2ccccc2)[nH]c1=O` [Form A, (S)-3-isopropyl-6-((1-phenylethyl)amino)-pyrimidine-2,4 (1H,3H)-dione], which solubility estimate ([1]; methanol, THF, THF/water (90/10, vol/vol) and DMSO/water (90/10, vol/vol)) is on record?
Answer: limited solubility

Question: And the solubility ([1]; HFIPA and various mixtures with DMSO, NMP and DMF)?
Answer: ≥ 20 mg/mL

Question: What about the solubility ([1]; anisole, isopropanol, MIBK, nitromethane, and toluene) of the same molecule?
Answer: ≤ 1 mg/mL

Question: Which results are given for `CC(C)n1c(=O)cc(N[C@@H](C)c2cccc(F)c2)[nH]c1=O` [MYK-581, (S)-6-((1-(3-fluorophenyl)ethyl)amino)-3-isopropylpyrimidine-2,4 (1H,3H)-dione]?
Answer: LV stiffness ([2]; control 3.5±0.3): 1.3±0.2 mmHg/mL; LV end-diastolic pressures ([2]; control 23±4): 9±1 mmHg; left-atrial volumes ([2]; control 29±4): 16 ± 1 mL; ECV ([2]; control 32±2): 27±1%; LV mass ([2]; control 66±5): 51 ± 4 g; time-constants of relaxation ([2]; control 71±5): 45 ± 3 ms; CO increase under β-AR challenge ([2]; dobutamine challenge, control +26±2): +60±8%; β-AR stroke-volume recruitment ([2]; dobutamine challenge, control −14±6): +15±4%; mortality ([2]; end of the study (~5 months), CTRL 40%): 0%; EF ([2]; ~14 weeks of treatment, cMR, control 65±2): 59±2%

Question: Which “echocardiography-derived indices of systolic function after supra-therapeutic mavacamten” value [3] does the source give for `CC(CCc1ccc(O)cc1)NCCc1ccc(O)c(O)c1` (stereo not drawn) [dobutamine] here?
Answer: successfully rescued/restored

Question: For `C[C@@H]1CC(=O)NN=C1c1ccc(NN=C(C#N)C#N)cc1` [levosimendan], which “echocardiography-derived indices of systolic function after supra-therapeutic mavacamten” value [3] is on record?
Answer: successfully rescued/restored
